# Reference: the supplement of paper PMC13380429
# Assays:
# Conditions in all cases: 72 h
# U2OS [1] = assay: relative viability EC50 (midpoint between 100% and the lowest measured viability); higher = less toxic
# Vero E6 [2] = assay: as above
# HepG2 [3] = assay: as above
# Caco-2 [4] = assay: as above
# Calu-3 [5] = assay: as above
# U2OS [6] = assay: cell viability relative to DMSO; higher = less toxic
# Vero E6 [7] = assay: as above
# HepG2 [8] = assay: as above
# Caco-2 [9] = assay: as above
# Calu-3 [10] = assay: as above
# U2OS [11] = assay: drug sensitivity score (DSS) for viability; higher = more toxic; extreme values may be limits of the assay
# Vero E6 [12] = assay: as above
# HepG2 [13] = assay: as above
# Caco-2 [14] = assay: as above
# Calu-3 [15] = assay: as above
Structure (SMILES),relative viability EC50 (U2OS [1]) [µM],relative viability EC50 (Vero E6 [2]) [µM],relative viability EC50 (HepG2 [3]) [µM],relative viability EC50 (Caco-2 [4]) [µM],relative viability EC50 (Calu-3 [5]) [µM],cell viability (U2OS [6]; 1 nM) [%],cell viability (U2OS [6]; 10 nM) [%],cell viability (U2OS [6]; 100 nM) [%],cell viability (U2OS [6]; 1000 nM) [%],cell viability (U2OS [6]; 10000 nM) [%],cell viability (Vero E6 [7]; 1 nM) [%],cell viability (Vero E6 [7]; 10 nM) [%],cell viability (Vero E6 [7]; 100 nM) [%],cell viability (Vero E6 [7]; 1000 nM) [%],cell viability (Vero E6 [7]; 10000 nM) [%],cell viability (HepG2 [8]; 1 nM) [%],cell viability (HepG2 [8]; 10 nM) [%],cell viability (HepG2 [8]; 100 nM) [%],cell viability (HepG2 [8]; 1000 nM) [%],cell viability (HepG2 [8]; 10000 nM) [%],cell viability (Caco-2 [9]; 1 nM) [%],cell viability (Caco-2 [9]; 10 nM) [%],cell viability (Caco-2 [9]; 100 nM) [%],cell viability (Caco-2 [9]; 1000 nM) [%],cell viability (Caco-2 [9]; 10000 nM) [%],cell viability (Calu-3 [10]; 1 nM) [%],cell viability (Calu-3 [10]; 10 nM) [%],cell viability (Calu-3 [10]; 100 nM) [%],cell viability (Calu-3 [10]; 1000 nM) [%],cell viability (Calu-3 [10]; 10000 nM) [%],drug sensitivity score (U2OS [11]),drug sensitivity score (Vero E6 [12]),drug sensitivity score (HepG2 [13]),drug sensitivity score (Caco-2 [14]),drug sensitivity score (Calu-3 [15])
CC(C)(C)NCc1cc(Nc2ccnc3cc(Cl)ccc23)c2c(c1O)CCCC2 [naphthoquine-phosphate],> 10,> 10,> 10,> 10,> 10,96.3,96.6,103,95.9,98.1,106,110,108,99.3,93.5,106,106,106,99.6,98.6,108,99.7,98.5,99.6,83,96.3,98,101,91,109,0,0,0,0.4,0
CSc1ccc(C(=O)N[C@@H]2CCCC[C@@H]2NC(=O)CNC(=O)c2cc(C(F)(F)F)ccc2NC(=O)NC(C)C)cc1 [BMS-CCR2-22],> 10,> 10,> 10,> 10,> 10,102,101,96.5,103,94.5,101,102,102,101,95.1,108,95.8,101,98,88,93.2,87.7,94.5,100,89.6,112,94,98.1,101,101,0,0,0.1,0,0
CCC(NC(C)C)C(O)c1ccc(O)c(O)c1 (stereo not given) [isoetharine],> 10,> 10,> 10,> 10,> 10,90.2,97.3,95.1,95.4,94,93.1,91.8,92.9,91.9,102,102,96.7,104,101,102,85.9,100,118,102,104,108,98.9,88.4,103,95.6,0,0,0,0,0
COc1cc2c(cc1C(F)(F)F)N(C(=O)Nc1cc(F)cc(-c3cccnc3)c1)CC2,> 10,> 10,> 10,> 10,> 10,100,105,97.4,103,95.9,96.9,96.1,99.4,99.9,95.1,99.5,90.9,103,96.4,113,96.8,104,89.8,99,98.6,102,91.7,92.9,101,93.9,0,0,0,0,0
CO/N=C1/C[C@@H](C(=O)NC[C@@H](O)c2ccccc2)N(C(=O)c2ccc(-c3ccccc3C)cc2)C1 [OT-R-antagonist-1],> 10,> 10,> 10,> 10,> 10,96.9,99.8,94.5,99.1,100,97,90.8,95.2,84.8,103,102,97.6,99.4,97.7,98.5,89,99,99.1,86.6,98.3,96.2,106,106,110,99.4,0,0,0,0,0
Cc1ncc(OC[C@@]2(c3cccc(F)c3)C[C@H]2C(=O)Nc2ccc(F)cn2)c(C)n1 [lemborexant],> 10,> 10,> 10,> 10,> 10,100,100,96,101,98.1,97.4,98.1,96.8,101,96.2,97.1,103,97.8,97.9,97.3,94.9,97.5,89.6,94.5,100,100,100,97.6,99.6,106,0,0,0,0,0
CCC[C@@]1(CCc2ccccc2)CC(O)=C([C@H](CC)c2cccc(NS(=O)(=O)c3ccc(C(F)(F)F)cn3)c2)C(=O)O1 [tipranavir],> 10,> 10,> 10,> 10,> 10,100,99.4,100,104,101,104,102,100,102,105,94.8,103,93.6,103,93.9,98.5,97.1,93.6,103,93.1,107,98.1,102,109,118,0,0,0,0,0
